Data from patent publication EP4692072A1, “PHOTOCHROMIC COMPOUND, PROPARGYL ALCOHOL COMPOUND, CURABLE COMPOSITION, OPTICAL ARTICLE, LENS, AND SPECTACLES” (TOKUYAMA CORPORATION, priority 2023, dated 2024).

Columns and labels:
[1] = Photochromic properties of photochromic laminate (plastic lens) prepared by coating method; format: physicochemical; conditions: 40 µm photochromic layer on thiourethane lens, 0.25 mmol compound per 100 g monomers, after color development
Description: First, the photochromic compound obtained in Example 1, a photoinitiator, and a polymerizable compound were mixed to obtain a curable composition.
Polyethylene glycol dimethacrylate (average molecular weight: 736): 42 parts by mass • Polyethylene glycol dimethacrylate (average molecular weight: 536): 12 parts by mass • Trimethylolpropane trimethacrylate: 38 parts by mass γ-methacryloyloxypropyl trimethoxysilane: 2 parts by mass Glycidyl methacrylate: 1 part by mass
Note that the photochromic compound was added to the curable composition so that the amount of the photochromic compound was 0.25 mmol based on 100 g of the total amount of the radical-polymerizable monomers.
Phenylbis(2,4,6-trimethylbenzoyl)phosphine oxide (photoinitiator: Omnirad 819): 0.3 parts by mass Ethylene bis(oxyethylene) bis[3-(5-tert-butyl-4-hydroxy-m-tolyl)propionate] (stabilizer, Irganox 245): 1 part by mass Bis(1,2,2,6,6-pentamethyl-4-piperidyl) sebacate: 3 parts by mass Leveling agent (L7001) manufactured by Dow Corning Toray Co.,Ltd.: 0.1 part by mass
First, a thiourethane-based plastic lens having a central thickness of 2 mm and a refractive index of 1.60 was prepared as the optical substrate. Note that this thiourethane-based plastic lens was pre-treated by alkaline etching with a 10% sodium hydroxide aqueous solution at 50°C for 5 minutes, followed by sufficient washing with distilled water.
A surface of the above-described plastic lens was coated with a moisture-curable primer (product name: TR-SC-P, manufactured by Tokuyama Corporation) at a rotation frequency of 70 rpm for 15 seconds, followed by 1000 rpm for 10 seconds, using a spin coater (1H-DX2, manufactured by MIKASA CO., LTD), Subsequently, about 2 g of the photochromic curable composition obtained above was spin-coated at a rotation frequency of 60 rpm for 40 seconds, followed by 600 rpm for 10 to 20 seconds, to form a photochromic coating layer with a film thickness of 40 µm.
The lens with the surface coated with the photochromic curable composition (photochromic coating layer) was irradiated with light using a metal halide lamp with an output power of 200 mW/cm^2 in a nitrogen gas atmosphere for 90 seconds to cure the coating film. Subsequently, the lens was further heated at 110°C for 1 hour to prepare a photochromic laminate having a photochromic layer.
In the same manner as in Example 26, photochromic laminates were prepared using the photochromic compounds obtained in Examples 2 to 25.
• [1] Maximum Absorption Wavelength (λmax): The maximum absorption wavelength after color development, measured using a spectrophotometer (instantaneous multichannel photodetector MCPD3000) manufactured by Otsuka Electronics Co., Ltd. was used as an indicator for the color tone during the color development. • [2] 23°C Color Optical Density (A23): A difference between an absorbancy measured after light irradiation at 23°C for 300 seconds {ε(300)} and an absorbancy without light irradiation ε(0) at the maximum absorption wavelength was used as an indicator for the color optical density. […] 23°C color fading half-life [τ1/2 (sec.)]: A time required for the absorbancy of the sample at the maximum absorption wavelength to decrease to 1/2 of {ε(300)-ε(0)} when the light irradiation was terminated after the light irradiation at 23°C for 300 seconds, was used as an indicator for the color fading speed. The shorter this time, the higher the color fading speed. • [4] Residual rate (A120/A0×100): The obtained photochromic plastic lens was subjected to accelerated deterioration using a xenon weather meter X25 manufactured by Suga Test Instruments Co., Ltd. for 120 hours. Subsequently, the color optical density was evaluated before and after the test, then a color optical density before the test (A0) and a color optical density after the test (A120) were measured, and a ratio (A120/A0) was defined as a residual rate. The residual rate was used as an indicator for a color developing durability. […]

[2] = Photochromic properties of photochromic cured product prepared by kneading method; format: physicochemical; conditions: 0.106 mmol per 100 g monomer; for A23: 1 mm cured product, 23°C color optical density ε(300)-ε(0); for Maximum absorption wavelength: 1 mm thiourethane cured product, after color development
Description: • [1] Maximum Absorption Wavelength (λmax): The maximum absorption wavelength after color development, measured using a spectrophotometer (instantaneous multichannel photodetector MCPD3000) manufactured by Otsuka Electronics Co., Ltd. was used as an indicator for the color tone during the color development. • [2] 23°C Color Optical Density (A23): A difference between an absorbancy measured after light irradiation at 23°C for 300 seconds {ε(300)} and an absorbancy without light irradiation ε(0) at the maximum absorption wavelength was used as an indicator for the color optical density. […] 23°C color fading half-life [τ1/2 (sec.)]: A time required for the absorbancy of the sample at the maximum absorption wavelength to decrease to 1/2 of {ε(300)-ε(0)} when the light irradiation was terminated after the light irradiation at 23°C for 300 seconds, was used as an indicator for the color fading speed. The shorter this time, the higher the color fading speed. • [4] Residual rate (A120/A0×100): The obtained photochromic plastic lens was subjected to accelerated deterioration using a xenon weather meter X25 manufactured by Suga Test Instruments Co., Ltd. for 120 hours. Subsequently, the color optical density was evaluated before and after the test, then a color optical density before the test (A0) and a color optical density after the test (A120) were measured, and a ratio (A120/A0) was defined as a residual rate. The residual rate was used as an indicator for a color developing durability. The higher the residual rate, the higher the color developing durability. The results of Examples 26, 50, and Comparative Examples 1 to 8 are summarized in Table 1, and the results of Examples 27 to 49 are summarized in Tables 2 and 3.
First, the photochromic compound obtained in Example 1, additives, and a polymerizable compound were mixed to obtain a curable composition.
As the polymerizable compound, a combination of the following polymerizable monomers was used. • 1,3-bis(isocyanatomethyl)cyclohexane: 36.7 parts by mass Pentaerythritol tetrakis(3-mercaptopropionate): 39.4 parts by mass • Polyoxyethylene polyoxypropylene lauryl ether (Wonder Surf 140 manufactured by Aoki Oil Industrial Co., Ltd.): 17.4 parts by mass • 1-decanethiol: 2.8 parts by mass • RX-1 adjusted according to the method described in Patent Document 13: 3.8 parts by mass
Note that the photochromic compound was added to the curable composition so that the amount of the photochromic compound was 0.106 mmol based on 100 g of the total amount of the polymerizable monomer. The following additives were used: Dimethyltin dichloride • : 0.05 part by mass • Irganox 245: 0.1 part by mass • 2-ethylhexyl 4-methoxycinnamate: 0.6 part by mass
The prepared curable composition was thoroughly defoamed, then injected into a glass mold having a 1 mm gap, and polymerized by cast polymerization. The polymerization was carried out in an air furnace while gradually raising the temperature from 27°C to 120°C over 18 hours. After the polymerization, the cured product was removed from the glass mold to obtain a photochromic cured product having a thickness of 1 mm. The obtained photochromic cured product was evaluated in the same manner as in Example 26.
(Examples 85 to 99, and Comparative Example 14 to 18) Photochromic cured products were prepared using photochromic compounds presented in Tables 6 and 7 in the same manner as in Example 84. The results of Examples 84 and 85 and Comparative Examples 14 to 18 are summarized in Table 6, and the results of Examples 86 to 99 are summarized in Table 7.

Maximum absorption wavelength [1] [nm]	A23 [2]	Maximum absorption wavelength [2] [nm]	Structure (SMILES)	other results
502	0.96 -	503	COc1ccc(C2(c3ccc(N(C)c4ccccc4)cc3)C=Cc3c4c(c5cc(-c6ccc(N7CCOCC7)cc6)c(OC)cc5c3O2)-c2ccccc2C4(C)C)cc1 (centres unmarked) [Example 1]	Maximum absorption wavelength ([1]; listed as Formula (37)): 601 nm; A23 ([2]; listed as Formula (37)): 1.06 -; Maximum absorption wavelength ([2]; listed as Formula (37)): 610 nm
470	0.59 -	472	CCCC1(CCC)c2cc(OC)ccc2-c2c1c1c(c3cc(OC)ccc23)OC(c2ccc(OC)cc2)(c2ccc(N(C)c3ccccc3)cc2)C=C1 (centres unmarked) [Example 3]	Maximum absorption wavelength ([1]; listed as Formula (46)): 612 nm; A23 ([2]; listed as Formula (46)): 1.16 -; Maximum absorption wavelength ([2]; listed as Formula (46)): 619 nm
509	0.56 -	511	CCCc1ccc(C2(c3ccc(N(C)c4ccccc4)cc3)C=Cc3c4c(c5cc(Sc6c(C)cccc6C)c(OC)cc5c3O2)-c2ccccc2C42CC(C)(C)CC(C)(C)C2)cc1 (centres unmarked) [Example 5]	Maximum absorption wavelength ([1]; listed as Formula (51)): 591 nm; A23 ([2]; listed as Formula (51)): 0.69 -; Maximum absorption wavelength ([2]; listed as Formula (51)): 598 nm
496	0.75 -	499	CCCC1(CCC)c2ccccc2-c2c1c1c(c3cc(OC)c(-c4ccc(OC)cc4OC)cc23)OC(c2ccc(N(C)c3ccccc3)cc2)(c2ccc(OC)c(F)c2)C=C1 (centres unmarked) [Example 7]	Maximum absorption wavelength ([1]; listed as Formula (55)): 603 nm; A23 ([2]; listed as Formula (55)): 0.99 -; Maximum absorption wavelength ([2]; listed as Formula (55)): 610 nm
474	0.51 -	476	COCCOCCC1(CCOCCOC)c2cc(C)ccc2-c2c1c1c(c3cc(C)ccc23)OC(c2ccc(N(C)c3ccc(F)cc3)cc2)(c2ccc(OC)c(OC)c2)C=C1 (centres unmarked) [Example 8]	Maximum absorption wavelength ([1]; listed as Formula (57)): 597 nm; A23 ([2]; listed as Formula (57)): 1.24 -; Maximum absorption wavelength ([2]; listed as Formula (57)): 604 nm
512	1.41 -	519	CCCCN(c1ccccc1)c1ccc(C2(c3ccc(C)cc3)C=Cc3c4c(c5cc(N6CCOCC6)c(OC)cc5c3O2)-c2ccccc2C4(CC)CC)cc1 (centres unmarked) [Example 10]	Maximum absorption wavelength ([1]; listed as Formula (62)): 598 nm; A23 ([2]; listed as Formula (62)): 1.09 -; Maximum absorption wavelength ([2]; listed as Formula (62)): 600 nm
477	–	–	COCCCCC1(CCCCOC)c2cc(Sc3c(C)cccc3C)ccc2-c2c1c1c(c3cc(OC)ccc23)OC(c2ccc(OC)cc2)(c2ccc(N(C)c3ccc(OC)cc3)cc2)C=C1 (centres unmarked) [Example 11]	Maximum absorption wavelength ([1]; listed as Formula (65)): 614 nm
506	–	–	COCCC1(CCOC)c2ccccc2-c2c1c1c(c3cc(OC)c(-c4ccc(N(c5ccccc5)c5ccccc5)cc4)cc23)OC(c2ccc(Oc3ccccc3)cc2)(c2ccc(N(C)c3ccccc3)cc2)C=C1 (centres unmarked) [Example 23]	Maximum absorption wavelength ([1]; listed as Formula (85)): 609 nm
500	–	–	CCCCOCCC1(CCOCCCC)c2ccccc2-c2c1c1c(c3cc(OC)c(NC(=O)c4ccccc4)cc23)OC(c2ccc(N(C)c3ccccc3)cc2)(c2ccc(OC)c(F)c2)C=C1 (centres unmarked) [Example 53]	Maximum absorption wavelength ([1]; listed as Formula (95)): 605 nm

Structure (SMILES)	Maximum absorption wavelength [1] [nm]	A23 [2]	Maximum absorption wavelength [2] [nm]	other results
COc1ccc(N(C)c2ccc(C3(c4ccc(CCO[Si](C)(C)CC[Si](O[Si](C)(C)C)(O[Si](C)(C)C)O[Si](C)(C)C)cc4)C=Cc4c5c(c6cc(N(C)c7ccccc7)c(OC)cc6c4O3)-c3ccc(C(F)(F)F)cc3C53CCC(C)(C)CC3)cc2)cc1 (centres unmarked) [Example 60]	523	–	–	Maximum absorption wavelength ([1]; listed as Formula (121)): 582 nm
